≈ marks a conversion by molar mass, not a printed value.
Experiments:
L929 cells = assay: CT50 cytotoxicity in L929 cells; settings: pH 7 phosphate
C. albicans 10231 = assay: MBC/MFC against C. albicans 10231; format: cell-based; settings: Candida albicans
S. aureus 29213 = assay: MBC/MFC against S. aureus 29213; format: cell-based; settings: Staphylococcus aureus
E. coli 25922 = assay: MBC/MFC against E. coli 25922; format: cell-based; settings: Escherichia coli

| Compound | CT50 L929 cells (L929 cells; Table 4) [mM] | MFC (C. albicans 10231; pH 4 acetate, Table 4) [µg/mL] | MFC (C. albicans 10231; pH 7 phosphate, Table 4) [µg/mL] | MBC (S. aureus 29213; pH 4 acetate, Table 4) [µg/mL] | MBC (S. aureus 29213; pH 7 phosphate, Table 4) [µg/mL] | MBC (E. coli 25922; pH 4 acetate, Table 4) [µg/mL] | MBC (E. coli 25922; pH 7 phosphate, Table 4) [µg/mL] | CT50 L929 cells (L929 cells; Table 3) [mM] | MFC (C. albicans 10231; pH 4 acetate, Table 3) [µg/mL] | MFC (C. albicans 10231; pH 7 phosphate, Table 3) [µg/mL] | MBC (S. aureus 29213; pH 4 acetate, Table 3) [µg/mL] | MBC (S. aureus 29213; pH 7 phosphate, Table 3) [µg/mL] | MBC (E. coli 25922; pH 4 acetate, Table 3) [µg/mL] | MBC (E. coli 25922; pH 7 phosphate, Table 3) [µg/mL] |
| --- | --- | --- | --- | --- | --- | --- | --- | --- | --- | --- | --- | --- | --- | --- |
| COCCOCCOCCCN1C(=O)C(C)(C)N(Cl)C1(C)C [Compound 39-114, 1-chloro-3-(3-(2-(2-methoxyethoxy)ethoxy)propyl)-2,2,5,5-tetramethylimidazolidin-4-one] | 0.24 | 8 (≈ 23.7 µM) | > 1020 | 4 (≈ 11.9 µM) | 256 (≈ 760 µM) | 8 (≈ 23.7 µM) | 256 (≈ 760 µM) | – | – | – | – | – | – | – |
| CC1(C)C(CO)OC(=O)N1Cl (stereo not drawn) [Compound 39-122, 3-chloro-5-(hydroxymethyl)-4,4-dimethyloxazolidin-2-one] | 0.14 | > 512 | 1020 (≈ 5700 µM) | 4 (≈ 22.3 µM) | 4 (≈ 22.3 µM) | 2 (≈ 11.1 µM) | 2 (≈ 11.1 µM) | – | – | – | – | – | – | – |
| COCCOCCOCC[N+](C)(C)CCC(C)(C)N(Cl)Cl [Compound 38-45, 3-(dichloroamino)-N-(2-(2-(2-methoxyethoxy)ethoxy)ethyl)-N,N,3-trimethylbutan-1-aminium 4-methylbenzenesulfonate] | – | – | – | – | – | – | – | 3.2 | 64 | > 2050 | 4 | 1020 | 4 | 1020 |
| COCCOCCOCCOCCOCCOCCOCCOCCOCCOCCOCCOCCOCCOCCOCCOCCOCCOCCOCCOCCOCCOCCOCCOCCOCCOCCOCCOCCOCCOCCOCCOCCOCCOCCOCCOCCOCCOCCOCCN1C(=O)C(C)(C)N(Cl)C1(C)C [Compound 39-118, 1-chloro-2,2,5,5-tetramethyl-3-(2,5,8,11,14,17,20,23,26,29,32,35,38,41,44, 47,50,53,56,59,62,65,68,71,74,77,80,83,86,89, 92,95,98,101,104,107,110,113,116-nonatriacontaoxaoctadecahectan-118-yl)imidazolidin-4-one] | 11.3 | 256 (≈ 134 µM) | > 2050 | 8 (≈ 4.19 µM) | 4100 (≈ 2150 µM) | 32 (≈ 16.8 µM) | 2050 (≈ 1070 µM) | – | – | – | – | – | – | – |
| COCCOCCOCCOCCS(=O)(=O)CCC(C)(C)N(Cl)Cl [Compound 38-147, N,N-dichloro-2-methyl-4-(2-(2-(2-(2-methoxyethoxy)ethoxy)ethoxy)ethylsulfonyl)butan-2-amine] | – | – | – | – | – | – | – | 0.039 | > 256 | 2050 (≈ 4990 µM) | 8 (≈ 19.5 µM) | 128 (≈ 312 µM) | 8 (≈ 19.5 µM) | 256 (≈ 624 µM) |
| CC(C)(CCS(=O)(=O)CC(O)CO)N(Cl)Cl (stereo not drawn) [Compound 38-27, 3-(3-(Dichloroamino)-3-methylbutylsulfonyl)propane-1,2-diol] | – | – | – | – | – | – | – | 0.13 | > 256 | > 1020 | 2 (≈ 6.8 µM) | 4 (≈ 13.6 µM) | 2 (≈ 6.8 µM) | 16 (≈ 54.4 µM) |
| COCCOCCOCCOCCN1C(=O)C(C)(C)N(Cl)C1(C)C [Compound 39-12, 1-chloro-2,2,5,5-tetramethyl-3-(2,5,8,11-tetraoxatridecan-13-yl)imidazolidin-4-one] | 0.18 | 16 (≈ 43.6 µM) | > 1020 | 8 (≈ 21.8 µM) | 256 (≈ 698 µM) | 8 (≈ 21.8 µM) | 256 (≈ 698 µM) | – | – | – | – | – | – | – |
| CC(C)(CCS(=O)(=O)CCOCCOCCS(=O)(=O)O)N(Cl)Cl [Compound 38-81, 2-(2-(2-(3-(dichloroamino)-3-methylbutylsulfonyl)ethoxy)ethoxy) ethanesulfonic acid] | – | – | – | – | – | – | – | 2.13 | 128 (≈ 307 µM) | > 2050 | 4 (≈ 9.61 µM) | 256 (≈ 615 µM) | 2 (≈ 4.8 µM) | 32 (≈ 76.9 µM) |
| COCCC[N+](C)(C)CCC(C)(C)N(Cl)Cl [Compound 38-137, 3-(dichloroamino)-N-(3-methoxypropyl)-N,N,3-trimethylbutan-1-aminium chloride] | – | – | – | – | – | – | – | 1.62 | 32 | > 1020 | 4 | > 1020 | 8 | 512 |

From US9248117B2, “Substituted N,N-dihaloamines as antimicrobials” (priority 2010, dated 2016)
